Measurements reported in ChEMBL document CHEMBL1158418, “Privileged structure-guided synthesis of quinazoline derivatives as inhibitors of trypanothione reductase” (Bioorg Med Chem Lett, 2009).
pIC50, pKi: −log10 of the molar value. Active and inactive are the calls of the source. No cut-off for these calls is given here.

Molecular target: T1, Trypanothione reductase (Trypanosoma cruzi, UniProt P28593)
Test: Inhibition of Trypanosoma cruzi recombinant trypanothione reductase by spectrophotometry-based non competitive inhibition type assay

T1 sequence (P28593 whole entry): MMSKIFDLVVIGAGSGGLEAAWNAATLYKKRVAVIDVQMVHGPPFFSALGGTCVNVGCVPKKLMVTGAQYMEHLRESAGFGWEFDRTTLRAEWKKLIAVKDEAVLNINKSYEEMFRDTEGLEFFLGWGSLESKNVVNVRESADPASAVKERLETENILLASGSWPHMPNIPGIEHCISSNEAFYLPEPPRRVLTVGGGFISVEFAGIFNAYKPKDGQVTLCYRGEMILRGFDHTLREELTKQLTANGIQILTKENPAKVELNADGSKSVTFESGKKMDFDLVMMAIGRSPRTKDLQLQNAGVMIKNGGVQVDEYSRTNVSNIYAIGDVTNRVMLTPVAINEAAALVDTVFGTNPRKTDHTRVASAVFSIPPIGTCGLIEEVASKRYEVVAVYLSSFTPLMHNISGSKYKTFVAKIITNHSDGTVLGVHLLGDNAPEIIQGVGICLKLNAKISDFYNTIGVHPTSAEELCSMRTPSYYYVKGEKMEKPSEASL

First: CN(C)CCOc1cc2nc(N3CCN(C4=CC(=O)c5ccccc5C4=O)CC3)nc(N)c2cc1OCCN(C)C
Second: COC1=CC(=O)C=C(N2CCN(c3nc(N)c4cc(OC)c(OC)cc4n3)CC2)C1=O
The pKi of the first is 0.47 log units higher: 4.96 for the first, 4.49 for the second.

System: Trypanosoma brucei rhodesiense
Test: Antitrypanosomal activity against Trypanosoma brucei rhodesiense bloodstream trypomastigotes
Format: functional, organism-based

Compared with COc1cc2nc(N3CCN(C(=O)Cc4c[nH]c5ccccc45)CC3)nc(N)c2cc1OC, CN(C)CCOc1cc2nc(N3CCN(C(=O)Cc4c[nH]c5ccccc45)CC3)nc(N)c2cc1OCCN(C)C is 1.00 log units lower in pIC50: 5.66 for the first, 4.66 for the second. The first is the more potent here.

Compared with COc1cc2nc(N3CCN(C(=O)[C@@H]4Cc5ccccc5CN4)CC3)nc(N)c2cc1OC, COc1cc2nc(N3CCN(C(=O)[C@H]4Cc5ccccc5CN4)CC3)nc(N)c2cc1OC is 0.47 log units lower in pIC50: 5.74 for the first, 5.27 for the second.

First: COC1=CC(=O)C=C(N2CCN(c3nc(N)c4cc(OC)c(OC)cc4n3)CC2)C1=O
Second: COc1cc2nc(N3CCN(C4=CC(=O)c5ccccc5C4=O)CC3)nc(N)c2cc1OC
The pIC50 of the first is 1.22 log units lower: 5.70 for the first, 6.92 for the second. The second is the more potent here.

Molecular target: T2, Glutathione reductase, mitochondrial (Homo sapiens) (UniProt P00390)
T2 sequence (whole entry): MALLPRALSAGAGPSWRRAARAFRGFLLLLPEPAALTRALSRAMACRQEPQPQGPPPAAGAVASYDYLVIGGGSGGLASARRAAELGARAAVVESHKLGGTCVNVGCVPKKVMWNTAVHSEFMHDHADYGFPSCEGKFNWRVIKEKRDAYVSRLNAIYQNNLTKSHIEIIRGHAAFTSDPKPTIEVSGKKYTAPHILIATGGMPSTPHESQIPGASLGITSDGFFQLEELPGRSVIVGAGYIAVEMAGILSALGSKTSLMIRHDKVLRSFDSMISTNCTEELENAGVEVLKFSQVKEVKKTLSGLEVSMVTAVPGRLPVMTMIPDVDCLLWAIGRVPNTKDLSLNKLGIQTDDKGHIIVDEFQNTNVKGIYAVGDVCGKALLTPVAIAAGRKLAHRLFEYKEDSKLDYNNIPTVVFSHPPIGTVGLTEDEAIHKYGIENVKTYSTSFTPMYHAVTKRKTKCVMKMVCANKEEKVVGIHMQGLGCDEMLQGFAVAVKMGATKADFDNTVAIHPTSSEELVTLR
Test: Inhibition of human glutathione reductase at 10 uM by spectrophotometry in presence of 100 uM GSSG

For COc1cc2nc(N3CCN(C4=CC(=O)c5ccccc5C4=O)CC3)nc(N)c2cc1OC, the inhibition was “inactive”.

System: Leishmania donovani
Test: Antileishmanial activity against Leishmania donovani axenic amastigotes
Format: functional, organism-based

First: COc1cc2nc(N3CCN(C(=O)Cc4c[nH]c5ccccc45)CC3)nc(N)c2cc1OC
Second: CN(C)CCOc1cc2nc(N3CCN(C(=O)Cc4c[nH]c5ccccc45)CC3)nc(N)c2cc1OCCN(C)C
The pIC50 of the first is higher: 4.37 for the first, < 4.27 for the second.

COc1cc2nc(N3CCN(C(=O)[C@@H]4Cc5ccccc5CN4)CC3)nc(N)c2cc1OC and COc1cc2nc(N3CCN(C(=O)[C@H]4Cc5ccccc5CN4)CC3)nc(N)c2cc1OC cannot be ordered by pIC50: < 4.17 for the first, < 4.17 for the second.

Going from COC1=CC(=O)C=C(N2CCN(c3nc(N)c4cc(OC)c(OC)cc4n3)CC2)C1=O to COc1cc2nc(N3CCN(C4=CC(=O)c5ccccc5C4=O)CC3)nc(N)c2cc1OC, the pIC50 rises from 4.34 to 5.75 (1.41 log units). The second is the more potent here.

System: L6
Test: Cytotoxicity against rat L6 cells
Format: cell-based

Compared with COc1cc2nc(N3CCN(C(=O)Cc4c[nH]c5ccccc45)CC3)nc(N)c2cc1OC, CN(C)CCOc1cc2nc(N3CCN(C(=O)Cc4c[nH]c5ccccc45)CC3)nc(N)c2cc1OCCN(C)C is lower in pIC50: 4.71 for the first, < 3.79 for the second.

Compared with COc1cc2nc(N3CCN(C(=O)[C@@H]4Cc5ccccc5CN4)CC3)nc(N)c2cc1OC, COc1cc2nc(N3CCN(C(=O)[C@H]4Cc5ccccc5CN4)CC3)nc(N)c2cc1OC is 0.42 log units lower in pIC50: 4.85 for the first, 4.43 for the second. The first is the more potent here.

Compared with COC1=CC(=O)C=C(N2CCN(c3nc(N)c4cc(OC)c(OC)cc4n3)CC2)C1=O, COc1cc2nc(N3CCN(C4=CC(=O)c5ccccc5C4=O)CC3)nc(N)c2cc1OC is 1.28 log units higher in pIC50: 4.28 for the first, 5.56 for the second.

Molecular target: Trypanothione reductase (Trypanosoma cruzi) (UniProt P28593)
Test: Inhibition of Trypanosoma cruzi recombinant trypanothione reductase at 100 uM by spectrophotometry using 50 uM trypanothione disulfide

Trypanothione reductase (Trypanosoma cruzi), sequence (P28593 whole entry, looked up): as the sequence (P28593 whole entry) above

First: COc1cc2nc(N3CCN(C(=O)Cc4c[nH]c5ccccc45)CC3)nc(N)c2cc1OC
Second: CN(C)CCOc1cc2nc(N3CCN(C(=O)Cc4c[nH]c5ccccc45)CC3)nc(N)c2cc1OCCN(C)C
The inhibition of the first is lower: 13% for the first, 44% for the second.

COc1cc2nc(N3CCN(C(=O)[C@@H]4Cc5ccccc5CN4)CC3)nc(N)c2cc1OC and COc1cc2nc(N3CCN(C(=O)[C@H]4Cc5ccccc5CN4)CC3)nc(N)c2cc1OC are the same in inhibition: 0% for the first, 0% for the second.

Compound COC1=CC(=O)C=C(N2CCN(c3nc(N)c4cc(OC)c(OC)cc4n3)CC2)C1=O has an inhibition of 69%.

System: Plasmodium falciparum
Test: Antiplasmodial activity against intraerythrocytic form of Plasmodium falciparum
Format: functional, organism-based

Going from COc1cc2nc(N3CCN(C(=O)Cc4c[nH]c5ccccc45)CC3)nc(N)c2cc1OC to CN(C)CCOc1cc2nc(N3CCN(C(=O)Cc4c[nH]c5ccccc45)CC3)nc(N)c2cc1OCCN(C)C, the pIC50 falls from 5.87 to 5.66 (0.21 log units).

First: COc1cc2nc(N3CCN(C(=O)[C@@H]4Cc5ccccc5CN4)CC3)nc(N)c2cc1OC
Second: COc1cc2nc(N3CCN(C(=O)[C@H]4Cc5ccccc5CN4)CC3)nc(N)c2cc1OC
The pIC50 of the first is 0.23 log units lower: 5.68 for the first, 5.91 for the second.

Going from COC1=CC(=O)C=C(N2CCN(c3nc(N)c4cc(OC)c(OC)cc4n3)CC2)C1=O to COc1cc2nc(N3CCN(C4=CC(=O)c5ccccc5C4=O)CC3)nc(N)c2cc1OC, the pIC50 rises from 5.52 to 6.28 (0.76 log units).

System: Trypanosoma cruzi
Test: Antitrypanosomal activity against Trypanosoma cruzi amastigotes infected in rat L6 cells
Format: functional, organism-based

Compared with COc1cc2nc(N3CCN(C(=O)Cc4c[nH]c5ccccc45)CC3)nc(N)c2cc1OC, CN(C)CCOc1cc2nc(N3CCN(C(=O)Cc4c[nH]c5ccccc45)CC3)nc(N)c2cc1OCCN(C)C is lower in pIC50: 4.99 for the first, < 4.30 for the second.

Going from COc1cc2nc(N3CCN(C(=O)[C@@H]4Cc5ccccc5CN4)CC3)nc(N)c2cc1OC to COc1cc2nc(N3CCN(C(=O)[C@H]4Cc5ccccc5CN4)CC3)nc(N)c2cc1OC, the pIC50 falls from 4.84 to 4.56 (0.28 log units). The first is the more potent here.

Compared with COC1=CC(=O)C=C(N2CCN(c3nc(N)c4cc(OC)c(OC)cc4n3)CC2)C1=O, COc1cc2nc(N3CCN(C4=CC(=O)c5ccccc5C4=O)CC3)nc(N)c2cc1OC is 0.98 log units higher in pIC50: 4.45 for the first, 5.43 for the second. The second is the more potent here.

Molecular target: Trypanothione reductase (Trypanosoma cruzi) (UniProt P28593)
Test: Inhibition of Trypanosoma cruzi recombinant trypanothione reductase at 25 uM by spectrophotometry using 100 uM trypanothione disulfide

COc1cc2nc(N3CCN(C4=CC(=O)c5ccccc5C4=O)CC3)nc(N)c2cc1OC showed an inhibition of 57%.

Molecular target: T1, Trypanothione reductase
Test: Inhibition of Trypanosoma cruzi recombinant trypanothione reductase by spectrophotometry

In the case of COc1cc2nc(N3CCN(C4=CC(=O)c5ccccc5C4=O)CC3)nc(N)c2cc1OC, the pKi was 5.12.

Molecular target: T1, Trypanothione reductase
Test: Inhibition of Trypanosoma cruzi recombinant trypanothione reductase by spectrophotometry-based mixed inhibition type assay

COc1cc(C(=N)NC2CCC(CC3CCC(/N=C(\N)c4ccc(OCc5ccccc5)c(OC)c4)CC3)CC2)ccc1OCc1ccccc1 (stereo not drawn) and COc1cc2nc(N3CCN(C4=CC(=O)c5ccccc5C4=O)CC3)nc(N)c2cc1OC are within 0.2 log units of each other in pKi: 4.80 for the first, 4.66 for the second.

Molecular target: Trypanothione reductase (Trypanosoma cruzi) (UniProt P28593)
Test: Inhibition of Trypanosoma cruzi recombinant trypanothione reductase at 25 uM by spectrophotometry using 50 uM trypanothione disulfide

In the case of COc1cc2nc(N3CCN(C4=CC(=O)c5ccccc5C4=O)CC3)nc(N)c2cc1OC, the inhibition was 53%.

Molecular target: Trypanothione reductase (Trypanosoma cruzi) (UniProt P28593)
Test: Inhibition of Trypanosoma cruzi recombinant trypanothione reductase at 100 uM by spectrophotometry using 100 uM trypanothione disulfide

Compared with COc1cc2nc(N3CCN(C(=O)Cc4c[nH]c5ccccc45)CC3)nc(N)c2cc1OC, CN(C)CCOc1cc2nc(N3CCN(C(=O)Cc4c[nH]c5ccccc45)CC3)nc(N)c2cc1OCCN(C)C is higher in inhibition: 23% for the first, 33% for the second.

COc1cc2nc(N3CCN(C(=O)[C@@H]4Cc5ccccc5CN4)CC3)nc(N)c2cc1OC and COc1cc2nc(N3CCN(C(=O)[C@H]4Cc5ccccc5CN4)CC3)nc(N)c2cc1OC are the same in inhibition: 0% for the first, 0% for the second.

With COC1=CC(=O)C=C(N2CCN(c3nc(N)c4cc(OC)c(OC)cc4n3)CC2)C1=O the inhibition was 75%.
